Data taken from US8729074B2, “Inhibitors of PI3 kinase” (Amgen Inc., priority 2009, dated 2014).

Legend:
PI3Kα = PI3Kα (Homo sapiens (Human), UniProt P42336); assay: In vitro PI3 kinase enzyme assay (PI3K ATPLoss); type: biochemical; conditions: average if run more than once
Protocol: Recombinant Expression of PI3K Enzymes
Full length p110 subunits of PI3K α, β and δ, N-terminally labeled with polyHis tag, can be co-expressed with p85 with Baculo virus expression vectors in sf9 insect cells. P110/p85 heterodimers can be purified by sequential Ni-NTA, Q-HP, Superdex-100 chromatography. Purified α, β and δ isozymes can be stored at −20° C. in 20 mM Tris, pH 8, 0.2M NaCl, 50% glycerol, 5 mM DTT, 2 mM Na cholate. […] The γ isozyme can be purified by sequential Ni-NTA, Superdex-200, Q-HP chromatography. The γ isozyme can be stored frozen at −80° C. in NaH2PO4, pH 8, 0.2M NaCl, 1% ethylene glycol, 2 mM β-mercaptoethanol.
In Vitro PI3 Kinase Enzyme Assays (PI3K ATPLoss)
PI3K enzyme assays (alpha, beta, delta and gamma) can be performed in 25 μL with the above final concentrations of components in white polyproplyene plates. Phosphatidyl inositol phosphoacceptor, PtdIns(4,5)P2 (e.g., P4508) can be obtained from Echelon Biosciences, Salt Lake City, Utah. […] Test compounds can be dissolved in DMSO and diluted with three-fold serial dilutions. The compound in DMSO (1 μL) may be added per test well, and the inhibition relative to reactions containing no compound, with and without enzyme can be determined. After assay incubation at RT, the reaction can be stopped and residual ATP can be determined by addition of an equal volume of a commercial ATP bioluminescence kit (Perkin Elmer EasyLite, Perkin Elmer, Waltham, Mass.) according to the manufacturer's instructions, and detected using an Analyst GT luminometer.

[1] = test system: phosphorylation of Serine 473 in Akt in HCT 116 cells; assay: Cell-based phospho-Akt Ser473 assay (HCT 116 cell); conditions: Homo sapiens; pAkt Ser473, HCT 116 cells, compound 2 hours, IGF-1 stimulation; average if run more than once; read-out: HCT116 Cell IC50
Description: Cell-Based Phospho-Akt Ser473Assay (HCT 116 Cell)
This assay determines the ability of a compound to inhibit the phosphorylation of Serine 473 in Akt using a MSD based sandwich immunoassay (Meso Scale Detection, Meso Scale Discovery (MSD), Gaithersburg, Md.). HCT 116 human colon carcinoma cell lines can be grown in McCoy's 5A growth medium (GIBCO, Carlsbad, Calif.) containing 10% FBS (GIBCO, Carlsbad, Calif.) and X1 Penicillin-streptomycin-glutamine (GIBCO, Carlsbad, Calif.). Prior to the assay, cells can be detached from the culture flask with trypsin, and re-suspended in complete media to give a final concentration of 1.6×10^5 cells per mL. Aliquots (100 μl) of the HCT116 cell suspension can be seeded into each well of a 96 well tissue culture plate to give a final density of 16,000 cells per well. Cells can then be incubated overnight at 37° C.
The following day the cells can be treated with serially diluted test compounds and incubated for 2 hours at 37° C. The culture media on the HCT 116 cells can be replaced with 189 μL McCoys media, supplemented with 0.1% BSA (ICN Biomedicals, Inc., Costa Mesa, Calif.). Compounds can be prepared as either 10 mM or 0.5 mM stock solutions in DMSO, and serially diluted 3 fold in a 10-point dose-response curve to give final concentrations that are 200-fold greater than the desired final test concentration. […]
25 μL Cell lysate can then be transferred to pre-blocked MSD assay plates pre-coated with a capture antibody specific for Akt, and the plates can be incubated for 2 hours at room temperature. […] An aliquot of 150 μL of diluted MSD read buffer can then be applied to each well, and the electrochemiluminescent signal can be measured using a MSD SECTOR™ plate reader (Meso Scale Discovery, Gaithersburg, Md.). This instrument measures the intensity of emitted light to determine a quantitative measure of phosphorylated Akt in each well. The dose-response data obtained with each compound can be analyzed and the IC50 inhibition of Akt phosphorylation at Ser473 can be calculated. […]

Sequence of PI3Kα (P42336 whole entry): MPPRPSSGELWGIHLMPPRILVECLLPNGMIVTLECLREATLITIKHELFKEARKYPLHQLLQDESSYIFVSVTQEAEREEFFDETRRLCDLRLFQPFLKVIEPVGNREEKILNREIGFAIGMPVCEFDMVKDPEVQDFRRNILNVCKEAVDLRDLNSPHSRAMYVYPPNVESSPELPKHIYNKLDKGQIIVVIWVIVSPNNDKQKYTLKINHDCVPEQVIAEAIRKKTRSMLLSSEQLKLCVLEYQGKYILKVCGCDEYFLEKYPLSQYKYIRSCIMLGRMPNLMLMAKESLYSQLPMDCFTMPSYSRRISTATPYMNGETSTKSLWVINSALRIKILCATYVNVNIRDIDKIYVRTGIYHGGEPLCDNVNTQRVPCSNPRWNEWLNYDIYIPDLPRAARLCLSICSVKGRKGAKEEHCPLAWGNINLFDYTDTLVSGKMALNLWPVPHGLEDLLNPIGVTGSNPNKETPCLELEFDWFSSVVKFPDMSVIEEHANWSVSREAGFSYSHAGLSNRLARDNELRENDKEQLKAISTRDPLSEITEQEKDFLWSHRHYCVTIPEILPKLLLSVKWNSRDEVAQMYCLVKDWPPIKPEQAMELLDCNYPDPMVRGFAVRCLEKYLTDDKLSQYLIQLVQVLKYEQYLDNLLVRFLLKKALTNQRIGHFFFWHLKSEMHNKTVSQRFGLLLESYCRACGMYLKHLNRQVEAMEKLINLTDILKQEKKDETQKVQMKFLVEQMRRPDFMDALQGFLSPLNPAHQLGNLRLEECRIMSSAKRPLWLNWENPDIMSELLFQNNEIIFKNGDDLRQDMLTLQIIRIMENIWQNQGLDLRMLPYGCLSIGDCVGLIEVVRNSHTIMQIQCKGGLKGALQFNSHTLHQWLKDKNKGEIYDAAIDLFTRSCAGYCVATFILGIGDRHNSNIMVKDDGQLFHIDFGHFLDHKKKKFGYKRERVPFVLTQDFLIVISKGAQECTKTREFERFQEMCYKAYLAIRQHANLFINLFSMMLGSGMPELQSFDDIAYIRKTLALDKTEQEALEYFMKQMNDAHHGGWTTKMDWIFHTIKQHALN
Sequence of PI3Kα (P27986 whole entry partner): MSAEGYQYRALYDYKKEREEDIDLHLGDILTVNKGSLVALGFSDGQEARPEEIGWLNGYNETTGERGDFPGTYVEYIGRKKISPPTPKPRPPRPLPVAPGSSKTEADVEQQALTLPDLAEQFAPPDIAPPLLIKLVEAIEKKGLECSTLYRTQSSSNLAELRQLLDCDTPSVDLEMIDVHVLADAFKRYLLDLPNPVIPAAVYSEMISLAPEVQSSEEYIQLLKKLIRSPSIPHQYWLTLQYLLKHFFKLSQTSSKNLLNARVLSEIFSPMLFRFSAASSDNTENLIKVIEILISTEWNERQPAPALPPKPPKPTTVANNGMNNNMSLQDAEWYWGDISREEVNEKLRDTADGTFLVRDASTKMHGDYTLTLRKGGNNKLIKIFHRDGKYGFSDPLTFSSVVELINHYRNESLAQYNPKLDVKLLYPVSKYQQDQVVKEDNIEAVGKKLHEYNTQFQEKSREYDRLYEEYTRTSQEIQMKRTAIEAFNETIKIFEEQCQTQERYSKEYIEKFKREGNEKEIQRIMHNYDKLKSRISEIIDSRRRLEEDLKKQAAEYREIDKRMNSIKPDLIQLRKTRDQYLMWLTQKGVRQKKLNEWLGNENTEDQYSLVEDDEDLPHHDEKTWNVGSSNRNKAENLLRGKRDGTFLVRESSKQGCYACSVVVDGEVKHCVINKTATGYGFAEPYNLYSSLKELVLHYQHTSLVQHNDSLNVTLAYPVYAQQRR

Q: For `O=S(=O)(Nc1cc(-c2cnc3ccc(N4CCOCC4)cn23)cnc1Cl)c1ccc(F)cc1` [Example 9, N-(2-Chloro-5-(6-(4-morpholinyl)imidazo[1,2-a]pyridin-3-yl)-3-pyridinyl)-4-fluorobenzenesulfonamide], which IC50 (PI3Kα) is on record?
A: 6 nM

Q: What does the source list for `O=S(=O)(Nc1cc(-c2cnc3ccc(Cl)nn23)cnc1Cl)c1ccc(F)cc1` [Example 25, N-(2-Chloro-5-(6-chloroimidazo[1,2-b]pyridazin-3-yl)pyridin-3-yl)-4-fluorobenzenesulfonamide]?
A: IC50 (PI3Kα): 47 nM; IC50 [1]: 564 nM

Q: `COc1cc(-c2cnc3ccc(-c4ccncc4)cn23)cnc1OC` [Example 12, 3-(5,6-Dimethoxy-3-pyridinyl)-6-(4-pyridinyl)imidazo[1,2-a]pyridine] was tested. Which IC50 (PI3Kα) did it give?
A: 861 nM

Q: Which IC50 (PI3Kα) does the source give for `O=S(=O)(Nc1cc(-c2cnc3ccccn23)cnc1Cl)c1ccc(F)cc1` [Example 3, N-(2-Chloro-5-imidazo[1,2-a]pyridin-3-yl-3-pyridinyl)-4-fluorobenzenesulfonamide] here?
A: 30 nM

Q: What about the IC50 [1] of the same compound?
A: 352 nM

Q: Which IC50 (PI3Kα) does the source give for `O=S(=O)(Nc1cc(-c2cnc3ccc(Br)cn23)cnc1Cl)c1ccc(F)cc1` [Example 6, N-(5-(6-Bromoimidazo[1,2-a]pyridin-3-yl)-2-chloro-3-pyridinyl)-4-fluorobenzenesulfonamide] here?
A: 14 nM

Q: `COc1cc(-c2cnc3ccccn23)cnc1OC` [Example 10, 3-(5,6-Dimethoxy-3-pyridinyl)imidazo[1,2-a]pyridine] was tested. Which IC50 (PI3Kα) did it give?
A: 15700 nM

Q: How did the IC50 (PI3Kα) turn out when `O=S(=O)(Nc1cc(-c2cnc3ccc(-c4cccnc4)cn23)cnc1Cl)c1ccc(F)cc1` [Example 8, N-(2-Chloro-5-(6-(3-pyridinyl)imidazo[1,2-a]pyridin-3-yl)-3-pyridinyl)-4-fluorobenzenesulfonamide] was run?
A: 4 nM

Q: `COc1cc(-c2cnc3ccc(Br)cn23)cnc1OC` [Example 11, 6-Bromo-3-(5,6-dimethoxy-3-pyridinyl)imidazo[1,2-a]pyridine] was tested. Which IC50 (PI3Kα) did it give?
A: 1500 nM

Q: For `O=S(=O)(Nc1cc(-c2cnc3ccc(-c4ccncc4)cn23)cnc1Cl)c1ccc(F)cc1` [Example 7, N-(2-Chloro-5-(6-(4-pyridinyl)imidazo[1,2-a]pyridin-3-yl)-3-pyridinyl)-4-fluorobenzenesulfonamide], which IC50 (PI3Kα) is on record?
A: 5 nM

Q: Which IC50 (PI3Kα) does the source give for `Cc1nc2ccc(Br)cn2c1-c1cnc(Cl)c(NS(=O)(=O)c2ccc(F)cc2)c1` [Example 5, N-(5-(6-Bromo-2-methylimidazo[1,2-a]pyridin-3-yl)-2-chloro-3-pyridinyl)-4-fluorobenzenesulfonamide] here?
A: 16 nM

Q: For `COc1cc(-c2cnc3ccc(N4CCOC4=O)cn23)cnc1OC` [Example 13, 3-(3-(5,6-Dimethoxy-3-pyridinyl)imidazo[1,2-a]pyridin-6-yl)-1,3-oxazolidin-2-one], which IC50 (PI3Kα) is on record?
A: 4670 nM

Q: What does the source list for `Cc1ccn2c(-c3cnc(Cl)c(NS(=O)(=O)c4ccc(F)cc4)c3)cnc2c1` [Example 4, N-(2-Chloro-5-(7-methylimidazo[1,2-a]pyridin-3-yl)-3-pyridinyl)-4-fluorobenzenesulfonamide]?
A: IC50 (PI3Kα): 13 nM; IC50 [1]: 180 nM
